Laboratory results reported in patent US10709653B2, “Cosmetic compositions comprising spiculisporic acid and at least one sulfate and/or sulfonate surfactant” (L'OREAL, priority 2013, dated 2020).
Where two headings read alike, the source gives them in different places.

Experiments:
[1] = Aspect and pH on storage of spiculisporic acid solutions pre-solubilized with KOH, alone or with surfactants (Example 2); format: physicochemical
Description: Solutions containing the S-acid at 4% or 8% (neutralized with an amount of KOH calculated so as to obtain the di-potassium salt of S-acid, i.e. R1=2) and surfactants, were made.

[2] = Aspect and pH on storage of S-acid solutions salified with KOH, Arg or TEA with sulfate or sulfonate surfactant (Example 3); format: physicochemical; set-up: key to Aspect (macroscopic observation) 15 days 4° C. / Aspect (macroscopic observation) 15 days RT: *: showed a precipitate; conditions: S-acid 4.00% MA
Description: The compositions of Table 3 above were prepared according to the following operating procedure:
Phase A was heated to 40° C. After solubilization of the S-acid, the phase B was added to the Phase A. Next, the phase C was added after phase B.
A portion of the solution was stored at room temperature and the other one at 4° C.

[3] = cited from earlier work
[4] = S-acid 4% MA, KOH (R=2), named surfactant 4% if any
[5] = sulfate surfactant 4.00% MA, base Arg, R 1.10
[6] = sulfate surfactant 4.00% MA, base Arg, R 1.25
[7] = sulfate surfactant 4.00% MA, base Arg, R 1.75
[8] = sulfate surfactant 4.00% MA, base Arg, R 2.00
[9] = sulfate surfactant 4.00% MA, base KOH, R 2.00
[10] = sulfate surfactant 4.00% MA, base TEA, R 1.10
[11] = sulfate surfactant 4.00% MA, base TEA, R 1.25
[12] = sulfate surfactant 4.00% MA, base TEA, R 1.75
[13] = sulfate surfactant 4.00% MA, base TEA, R 2.00
[14] = sulfonate surfactant 4.00% MA, base Arg, R 1.10
[15] = sulfonate surfactant 4.00% MA, base Arg, R 1.25
[16] = sulfonate surfactant 4.00% MA, base Arg, R 1.75
[17] = sulfonate surfactant 4.00% MA, base Arg, R 2.00
[18] = sulfonate surfactant 4.00% MA, base KOH, R 2.00
[19] = sulfonate surfactant 4.00% MA, base TEA, R 1.10
[20] = sulfonate surfactant 4.00% MA, base TEA, R 1.25
[21] = sulfonate surfactant 4.00% MA, base TEA, R 1.75
[22] = sulfonate surfactant 4.00% MA, base TEA, R 2.00

CCCCCCCCCCC(C(=O)O)C1(C(=O)O)CCC(=O)O1 (stereo not drawn) [S-acid, 4,5-dicarboxy-4-pentadecanolide]
pH t0 RT ([1]; S-acid 4% MA, KOH (R=2), named surfactant 4% active material if any): 5.97 | pH 20 days after storage T = 4° C. [1, 4]: 6.01 | pH 20 days after storage RT [1, 4]: 6.02 | Aspect after 20 days of storage at 4° C. ([1]; S-acid 4%, KOH (R=2), surfactant 4% if any): precipitation | pH 20 days after storage T = 4° C. ([1]; S-acid 8% MA, KOH (R=2)): 6.47 | pH 20 days after storage RT ([1]; S-acid 8% MA, KOH (R=2)): 6.47 | pH t0 RT ([1]; S-acid 8% MA, neutralized with KOH (R=2)): 6.43 | Aspect after 20 days of storage at 4° C. ([1]; S-acid 8%, KOH (R=2)): precipitation | pH 15 days 4° C. [2, 5]: 5.19 | pH 15 days RT [2, 5]: 5.11 | pH 15 days 4° C. [2, 6]: 5.33 | pH 15 days RT [2, 6]: 5.34 | pH 15 days 4° C. [2, 7]: 5.93 | pH 15 days RT [2, 7]: 5.95 | pH 15 days 4° C. [2, 8]: 6.25 | pH 15 days RT [2, 8]: 6.21 | Aspect (macroscopic observation) 15 days 4° C. [2, 9]: * | Aspect (macroscopic observation) 15 days RT [2, 9]: * | pH 15 days 4° C. [2, 9]: 6.24 | pH 15 days RT [2, 9]: 6.33 | pH 15 days 4° C. [2, 10]: 5.26 | pH 15 days RT [2, 10]: 5.19 | pH 15 days 4° C. [2, 11]: 5.38 | pH 15 days RT [2, 11]: 5.39 | pH 15 days 4° C. [2, 12]: 6.02 | pH 15 days RT [2, 12]: 5.98 | pH 15 days 4° C. [2, 13]: 6.32 | pH 15 days RT [2, 13]: 6.32 | pH 15 days 4° C. [2, 14]: 5.07 | pH 15 days RT [2, 14]: 5.00 | pH 15 days 4° C. [2, 15]: 5.28 | pH 15 days RT [2, 15]: 5.27 | pH 15 days 4° C. [2, 16]: 5.89 | pH 15 days RT [2, 16]: 5.93 | pH 15 days 4° C. [2, 17]: 6.19 | pH 15 days RT [2, 17]: 6.18 | Aspect (macroscopic observation) 15 days 4° C. [2, 18]: * | pH 15 days 4° C. [2, 18]: 6.34 | pH 15 days RT [2, 18]: 6.43 | pH 15 days 4° C. [2, 19]: 5.22 | pH 15 days RT [2, 19]: 5.17 | pH 15 days 4° C. [2, 20]: 5.37 | pH 15 days RT [2, 20]: 5.33 | pH 15 days 4° C. [2, 21]: 5.96 | pH 15 days RT [2, 21]: 5.97 | pH 15 days 4° C. [2, 22]: 6.34 | pH 15 days RT [2, 22]: 6.33 | Solubility in water ([3]; high temperature): partly soluble | Solubility in ethanol ([3]; room temperature): soluble | Solubility in fats ([3]; room temperature): insoluble | Solubility in water ([3]; room temperature): insoluble
